Data as given in patent US20110245284A1, “Alkoxy- and Alkylthio-Substituted Anilinopyrimidines” (Bayer CropScience AG, priority 2008, published 2011).

Columns and labels:
[1] = logP by LC-MS on reversed-phase columns (C 18), method [b], acidic range pH 2.7; assay type: physicochemical; settings: for chromatographic logP: pH 2.7, log p
Protocol: (§1) The logP values were determined in accordance with EEC Directive 79/831 Annex V.A8 by HPLC (High Performance Liquid Chromatography) on reversed-phase columns (C 18), using the methods below:
[b] The LC-MS determination in the acidic range is carried out at pH 2.7 using the mobile phases 0.1% aqueous formic acid and acetonitrile (contains 0.1% formic acid), linear gradient from 10% acetonitrile to 95% acetonitrile.

[2] = system: Leptosphaeria nodorum; assay: Leptosphaeria nodorum test (wheat) / protective; assay type: in vivo; settings: Parastagonospora nodorum, active compound concentration 500 ppm, evaluation 7-9 days after inoculation, read-out: efficacy
Protocol: Thereafter, the plants are placed in a greenhouse at 90% relative atmospheric humidity and a temperature of 22° C.

[3] = logP by LC-MS on reversed-phase columns (C 18), method [c], neutral range pH 7.8; assay type: physicochemical
Protocol: as §1
[c] The LC-MS determination in the neutral range is carried out at pH 7.8 using the mobile phases 0.001 molar aqueous ammonium bicarbonate solution and acetonitrile, linear gradient from 10% acetonitrile to 95% acetonitrile.

[4] = method [b], LC-MS, acidic range pH 2.7

Structure (SMILES) | log p ([1]; pH 2.7) | also measured
COCCOCCOc1ccc(Nc2ncc(Br)c(NC3CC3)n2)cc1 [Example 2] | 1.69[b] | –
C=C(C)CSc1cccc(Nc2ncc(Br)c(NC3CC3)n2)c1 [Example 3] | 4.25[b] | –
COCC(C)Oc1ccc(Nc2ncc(Br)c(NC3CC3)n2)cc1Cl (stereo not drawn) [Example 4] | 2.75[b] | –
COC(c1cccc(Nc2ncc(Br)c(NC3CCC3)n2)c1)C(F)(F)F (stereo not drawn) [Example 10] | 3[b] | –
CCSC(C)c1cccc(Nc2ncc(Cl)c(NC3CCC3)n2)c1 (stereo not drawn) [Example 11] | 3.25[b] | –
CSC(C)c1cccc(Nc2ncc(C(F)(F)F)c(NC3CCCC3)n2)c1 (stereo not drawn) [Example 16] | – | pest or weed control at 500 ppm [2]: ≥ 70%; chromatographic logP [1]: 4.48
COC(C)c1cccc(Nc2ncc(C(F)(F)F)c(NC3CCCC3)n2)c1 (stereo not drawn) [Example 17] | – | pest or weed control at 500 ppm [2]: ≥ 70%; chromatographic logP [1]: 4.13
COC(c1cccc(Nc2ncc(Cl)c(NC3CCC3)n2)c1)C(F)(F)F (stereo not drawn) [Example 21] | 2.99[b] | –
COC(c1cccc(Nc2ncc(Cl)c(NCC(F)F)n2)c1)C(F)(F)F (stereo not drawn) [Example 23] | 2.93[b] | –
CCSC(C)c1cccc(Nc2ncc(C(F)(F)F)c(NC3CCC3)n2)c1 (stereo not drawn) [Example 36] | 4.75[b] | –
CCSC(C)c1cccc(Nc2ncc(C(F)(F)F)c(NC3CCCC3)n2)c1 (stereo not drawn) [Example 37] | – | pest or weed control at 500 ppm [2]: ≥ 70%; chromatographic logP [1]: 5.2
C=C(C)CSc1cccc(Nc2ncc(Cl)c(NC3CC3)n2)c1 [Example 38] | 3.59[b] | –
CCS(=O)(=O)C(C)c1cccc(Nc2ncc(C(F)(F)F)c(NC3CCCC3)n2)c1 (stereo not drawn) [Example 39] | 3.27[b] | –
CCS(=O)(=O)C(C)c1cccc(Nc2ncc(C(F)(F)F)c(NCC3CC3)n2)c1 (stereo not drawn) [Example 41] | 2.65[b] | –
CC[S+]([O-])C(C)c1cccc(Nc2ncc(C(F)(F)F)c(NC3CCCC3)n2)c1 (stereo not drawn) [Example 42] | 2.87[b] | –
CC[S+]([O-])C(C)c1cccc(Nc2ncc(C(F)(F)F)c(NCC3CC3)n2)c1 (stereo not drawn) [Example 44] | 2.3[b] | –
CCS(=O)(=O)C(C)c1cccc(Nc2ncc(C(F)(F)F)c(NC3CC3)n2)c1 (stereo not drawn) [Example 46] | 2.49[b] | –
COCc1cc(COC)cc(Nc2ncc(Cl)c(NC3CCC3)n2)c1 [Example 47] | 2.06[b] | –
CCOCCOc1cc(Nc2ncc(Cl)c(NC3CC3)n2)ccc1C [Example 48] | – | log p [1, 4]: 2.23[b]
O=S(=O)(CCCl)c1cc(Nc2ncc(Cl)c(NC3CC3)n2)ccc1Cl [Example 49] | – | log p [1, 4]: 2.67[b]

Structure (SMILES) | log p ([1]; pH 2.7) | also measured
Clc1cnc(Nc2cccc(COc3ccccc3)c2)nc1NC1CC1 [Example 50] | – | pest or weed control at 500 ppm [2]: ≥ 70%; chromatographic logP [1]: 2.92
CCS(=O)(=O)c1ccc(Nc2ncc(Cl)c(NC3CC3)n2)cc1 [Example 54] | – | chromatographic logP [1]: 2.04
CCS(=O)(=O)c1ccc(Nc2ncc(C(F)(F)F)c(NC3CC3)n2)cc1 [Example 55] | 2.66[b] | –
COCCOc1ccc(Nc2ncc(Cl)c(NC3CC3)n2)cc1Cl [Example 68] | – | pest or weed control at 500 ppm [2]: ≥ 70%; chromatographic logP [1]: 2.12
COCc1cccc(Nc2ncc(Cl)c(N(C)CCCN3CCCCCC3=O)n2)c1 [Example 69] | 1.91[b] | –
COCC(C)Oc1ccc(Nc2ncc(Cl)c(NC3CC3)n2)cc1C(F)(F)F (stereo not drawn) [Example 72] | 2.91[b] | –
COCC(C)Oc1ccc(Nc2ncc(C(F)(F)F)c(NC3CC3)n2)cc1Cl (stereo not drawn) [Example 78] | 3.7[b] | log p ([3]; pH 7.8): 3.99[c];
COCC(C)Oc1ccc(Nc2ncc(C(F)(F)F)c(NC3CC3)n2)cc1C(F)(F)F (stereo not drawn) [Example 80] | 4.05[b] | log p ([3]; pH 7.8): 4.28[c];
COCCOc1ccc(Nc2ncc(C(F)(F)F)c(NC3CC3)n2)cc1F [Example 81] | 2.89[b] | log p ([3]; pH 7.8): 3.27[c];
COCc1cccc(Nc2ncc(Br)c(NC3CC3C)n2)c1 (stereo not drawn) [Example 84] | – | log p [1, 4]: 2.15[b]; log p ([3]; method [c], LC-MS, neutral range pH 7.8): 3.59[c];
Fc1cccc(Nc2ncc(Cl)c(NC3CC3)n2)c1 [Example 86] | 1.87[b] | –
COCc1cccc(Nc2ncc(Cl)c(N3CCCC3)n2)c1 [Example 87] | – | log p ([3]; pH 7.8): 3.83[c];
COCC(C)Oc1ccc(Nc2ncc(C(F)(F)F)c(NC3CC3)n2)cc1 (stereo not drawn) [Example 88] | 2.71[b] | log p ([3]; pH 7.8): 3.45[c];
COCc1cccc(Nc2ncc(Cl)c(N3CCCCC3)n2)c1 [Example 89] | 3.14[b] | log p ([3]; pH 7.8): 4.2[c];
CCCN(c1nc(Nc2cccc(COC)c2)ncc1Cl)C1CC1 [Example 136] | 3.68[b] | –
COCc1cccc(Nc2ncc(Cl)c(N3CCCCCC3)n2)c1 [Example 139] | 2.88[b] | –
CCN(c1nc(Nc2cccc(COC)c2)ncc1Cl)C(C)C [Example 140] | – | chromatographic logP [1]: 3
CCCN(C)c1nc(Nc2cccc(COC)c2)ncc1Cl [Example 141] | – | chromatographic logP [1]: 2.55
COCc1cccc(Nc2ncc(Cl)c(NCC(C)(C)C)n2)c1 [Example 142] | – | pest or weed control at 500 ppm [2]: ≥ 70%; chromatographic logP [1]: 2.48
